# Results reported in US20100092526A1, “NANOEMULSION THERAPEUTIC COMPOSITIONS AND METHODS OF USING THE SAME” (NanoBio Corporation, priority 2008, published 2010).
# Key:
# [1] = system: Stenotrophomonas maltophilia; test: MIC/MBC of nanoemulsions against gram-negative isolates (CLSI, alamar blue); type: cell-based; conditions: Stenotrophomonas maltophilia (n = 5); nanoemulsions in the presence of 5 mM EDTA
# [2] = system: Acinetobacter baumannii; test: as above; type: cell-based; conditions: Acinetobacter baumannii (n = 5)
# [3] = system: Burkholderia cenocepacia; test: MIC/MBC against CF isolates (CLSI, alamar blue)
# [4] = system: Escherichia coli; test: MIC/MBC of nanoemulsions against gram-negative isolates (CLSI, alamar blue); type: cell-based; conditions: Escherichia coli (n = 5), nanoemulsions in the presence of 5 mM EDTA
# [5] = system: Klebsiella pneumoniae; test: as above; type: cell-based; conditions: Klebsiella pneumoniae (n = 5), nanoemulsions in the presence of 5 mM EDTA
# [6] = system: Pseudomonas aeruginosa; test: as above; type: cell-based; conditions: Pseudomonas aeruginosa (n = 5)
# [7] = system: Acinetobacter baumannii; test: MIC/MBC against clinical isolates (CLSI, alamar blue)
# [8] = system: Burkholderia cepacia; test: MIC/MBC of nanoemulsions against gram-negative isolates (CLSI, alamar blue); type: cell-based; conditions: Burkholderia cepacia (n = 5); nanoemulsions in the presence of 5 mM EDTA; in µg/mL
# [9] = system: Proteus mirabilis; test: as above; type: cell-based; conditions: Proteus mirabilis (n = 5), nanoemulsions in the presence of 5 mM EDTA
# [10] = system: Pseudomonas aeruginosa; test: MIC/MBC against CF isolates (CLSI, alamar blue)
# [11] = system: Stenotrophomonas maltophilia; test: MIC/MBC against CF isolates (CLSI, alamar blue)
# [12] = nanoemulsions in the presence of 5 mM EDTA
# [13] = B. cenocepacia, NE with 5 mM EDTA
# [14] = A. baumannii, NE with 1 mM EDTA
# [15] = P. aeruginosa, NE with 5 mM EDTA
# [16] = 11 CF Stenotrophomonas isolates
# [17] = CF Stenotrophomonas isolate NB41
# [18] = CF Stenotrophomonas isolate NB42
# [19] = CF Stenotrophomonas isolate NB43
# [20] = CF Stenotrophomonas isolate NB44
# [21] = CF Stenotrophomonas isolate NB45
# [22] = CF Stenotrophomonas isolate Steno 1
# [23] = CF Stenotrophomonas isolate Steno 2
# [24] = CF Stenotrophomonas isolate Steno 3
# [25] = CF Stenotrophomonas isolate Steno 4
# [26] = CF Stenotrophomonas isolate Steno 6
# [27] = CF Stenotrophomonas isolate Steno 8
# [28] = S. maltophilia, NE with 1 mM EDTA
# [29] = Stenotrophomonas, each drug alone
substance,measurement,setting,value
Colistin,MIC50,[1],≤ 0.5 µg/mL
same,MIC Range,[1],<=0.5-1 ^
same,% resistant,[2],0.0%
same,% susceptible,[2],100.0%
same,MIC50,[2]; [12],≤ 0.5 µg/mL
same,MIC Range,[2]; [12],<=0.5-2 ^
same,MBC 50,[3]; 10 CF Burkholderia isolates,>32 µg/mL
same,MBC 90,[3]; 10 CF Burkholderia isolates,>32 µg/mL
same,MIC50,[3]; 10 CF Burkholderia isolates,>32 µg/mL
same,MIC90,[3]; 10 CF Burkholderia isolates,>32 µg/mL
same,MBC 90,[3]; [13],> 32 µg/mL
same,MIC90,[3]; [13],> 32 µg/mL
same,MBC 50,"[3]; Burkholderia, each drug alone",>32 µg/mL
same,MBC 90,"[3]; Burkholderia, each drug alone",>32 µg/mL
same,MIC50,"[3]; Burkholderia, each drug alone",>32 µg/mL
same,MIC90,"[3]; Burkholderia, each drug alone",>32 µg/mL
same,MBC,[3]; CF Burkholderia isolate NB21,>32 µg/mL
same,MIC,[3]; CF Burkholderia isolate NB21,>32 µg/mL
same,MBC,[3]; CF Burkholderia isolate NB22,>32 µg/mL
same,MIC,[3]; CF Burkholderia isolate NB22,>32 µg/mL
same,MBC,[3]; CF Burkholderia isolate NB23,>32 µg/mL
same,MIC,[3]; CF Burkholderia isolate NB23,>32 µg/mL
same,MBC,[3]; CF Burkholderia isolate NB24,>32 µg/mL
same,MIC,[3]; CF Burkholderia isolate NB24,>32 µg/mL
same,MBC,[3]; CF Burkholderia isolate NB25,>32 µg/mL
same,MIC,[3]; CF Burkholderia isolate NB25,>32 µg/mL
same,MBC,[3]; CF Burkholderia isolate NB26,>32 µg/mL
same,MIC,[3]; CF Burkholderia isolate NB26,32 µg/mL
same,MBC,[3]; CF Burkholderia isolate NB27,>32 µg/mL
same,MIC,[3]; CF Burkholderia isolate NB27,>32 µg/mL
same,MBC,[3]; CF Burkholderia isolate NB28b,>32 µg/mL
same,MIC,[3]; CF Burkholderia isolate NB28b,>32 µg/mL
same,MBC,[3]; CF Burkholderia isolate NB29,>32 µg/mL
same,MIC,[3]; CF Burkholderia isolate NB29,>32 µg/mL
same,MBC,[3]; CF Burkholderia isolate NB30,>32 µg/mL
same,MIC,[3]; CF Burkholderia isolate NB30,>32 µg/mL
same,MIC50,[4],≤ 0.5 µg/mL
same,MIC Range,[4]; in µg/mL,<=0.5
same,MIC50,[5],≤ 0.5 µg/mL
same,MIC Range,[5]; in µg/mL,<=0.5
same,% resistant,[6],0.0%
same,% susceptible,[6],100.0%
same,MIC50,[6]; [12],1 µg/mL
same,MIC Range,[6]; [12],<=0.5-2 ^
same,MBC 50,[7]; 10 Acinetobacter isolates,4 µg/mL
same,MBC 90,[7]; 10 Acinetobacter isolates,>16 µg/mL
same,MIC50,[7]; 10 Acinetobacter isolates,1 µg/mL
same,MIC90,[7]; 10 Acinetobacter isolates,1 µg/mL
same,MBC 90,[7]; [14],> 16 µg/mL
same,MIC90,[7]; [14],1 µg/mL
same,MBC,[7]; Acinetobacter isolate NB31,1 µg/mL
same,MIC,[7]; Acinetobacter isolate NB31,1 µg/mL
same,MBC,[7]; Acinetobacter isolate NB32,8 µg/mL
same,MIC,[7]; Acinetobacter isolate NB32,1 µg/mL
same,MBC,[7]; Acinetobacter isolate NB33,4 µg/mL
same,MIC,[7]; Acinetobacter isolate NB33,1 µg/mL
same,MBC,[7]; Acinetobacter isolate NB34,1 µg/mL
same,MIC,[7]; Acinetobacter isolate NB34,1 µg/mL
same,MBC,[7]; Acinetobacter isolate NB35,4 µg/mL
same,MIC,[7]; Acinetobacter isolate NB35,1 µg/mL
same,MBC,[7]; Acinetobacter isolate NB36,1 µg/mL
same,MIC,[7]; Acinetobacter isolate NB36,1 µg/mL
same,MBC,[7]; Acinetobacter isolate NB37,>16 µg/mL
same,MIC,[7]; Acinetobacter isolate NB37,1 µg/mL
same,MBC,[7]; Acinetobacter isolate NB38,>16 µg/mL
same,MIC,[7]; Acinetobacter isolate NB38,1 µg/mL
same,MBC,[7]; Acinetobacter isolate NB39,8 µg/mL
same,MIC,[7]; Acinetobacter isolate NB39,1 µg/mL
same,MBC,[7]; Acinetobacter isolate NB40,>16 µg/mL
same,MIC,[7]; Acinetobacter isolate NB40,1 µg/mL
same,MBC 50,"[7]; Acinetobacter, each drug alone",4 µg/mL
same,MBC 90,"[7]; Acinetobacter, each drug alone",>16 µg/mL
same,MIC50,"[7]; Acinetobacter, each drug alone",1 µg/mL
same,MIC90,"[7]; Acinetobacter, each drug alone",1 µg/mL
same,MIC Range,[8],>4
same,MIC50,[9],> 4 µg/mL
same,MIC Range,[9]; in µg/mL,>4
same,MBC 50,[10]; 20 CF Pseudomonas isolates,4 µg/mL
same,MBC 90,[10]; 20 CF Pseudomonas isolates,8 µg/mL
same,MIC50,[10]; 20 CF Pseudomonas isolates,2 µg/mL
same,MIC90,[10]; 20 CF Pseudomonas isolates,2 µg/mL
same,MBC,[10]; CF Pseudomonas isolate NB1,>8 µg/mL
same,MIC,[10]; CF Pseudomonas isolate NB1,2 µg/mL
same,MBC,[10]; CF Pseudomonas isolate NB2,8 µg/mL
same,MIC,[10]; CF Pseudomonas isolate NB2,1 µg/mL
same,MBC,[10]; CF Pseudomonas isolate NB3,8 µg/mL
same,MIC,[10]; CF Pseudomonas isolate NB3,1 µg/mL
same,MBC,[10]; CF Pseudomonas isolate NB4,4 µg/mL
same,MIC,[10]; CF Pseudomonas isolate NB4,2 µg/mL
same,MBC,[10]; CF Pseudomonas isolate NB5,8 µg/mL
same,MIC,[10]; CF Pseudomonas isolate NB5,2 µg/mL
same,MBC,[10]; CF Pseudomonas isolate NB6,4 µg/mL
same,MIC,[10]; CF Pseudomonas isolate NB6,2 µg/mL
same,MBC,[10]; CF Pseudomonas isolate NB7,4 µg/mL
same,MIC,[10]; CF Pseudomonas isolate NB7,2 µg/mL
same,MBC,[10]; CF Pseudomonas isolate NB8,8 µg/mL
same,MIC,[10]; CF Pseudomonas isolate NB8,2 µg/mL
same,MBC,[10]; CF Pseudomonas isolate NB9,8 µg/mL
same,MIC,[10]; CF Pseudomonas isolate NB9,2 µg/mL
same,MBC,[10]; CF Pseudomonas isolate NB10,2 µg/mL
same,MIC,[10]; CF Pseudomonas isolate NB10,2 µg/mL
same,MBC,[10]; CF Pseudomonas isolate NB11,4 µg/mL
same,MIC,[10]; CF Pseudomonas isolate NB11,1 µg/mL
same,MBC,[10]; CF Pseudomonas isolate NB12,8 µg/mL
same,MIC,[10]; CF Pseudomonas isolate NB12,4 µg/mL
same,MBC,[10]; CF Pseudomonas isolate NB13,8 µg/mL
same,MIC,[10]; CF Pseudomonas isolate NB13,2 µg/mL
same,MBC,[10]; CF Pseudomonas isolate NB14,4 µg/mL
same,MIC,[10]; CF Pseudomonas isolate NB14,2 µg/mL
same,MBC,[10]; CF Pseudomonas isolate NB15,8 µg/mL
same,MIC,[10]; CF Pseudomonas isolate NB15,2 µg/mL
same,MBC,[10]; CF Pseudomonas isolate NB16,4 µg/mL
same,MIC,[10]; CF Pseudomonas isolate NB16,2 µg/mL
same,MBC,[10]; CF Pseudomonas isolate NB17,4 µg/mL
same,MIC,[10]; CF Pseudomonas isolate NB17,1 µg/mL
same,MBC,[10]; CF Pseudomonas isolate NB18,4 µg/mL
same,MIC,[10]; CF Pseudomonas isolate NB18,1 µg/mL
same,MBC,[10]; CF Pseudomonas isolate NB19,4 µg/mL
same,MIC,[10]; CF Pseudomonas isolate NB19,2 µg/mL
same,MBC,[10]; CF Pseudomonas isolate NB20,>8 µg/mL
same,MIC,[10]; CF Pseudomonas isolate NB20,2 µg/mL
same,MBC 90,[10]; [15],8 µg/mL
same,MIC90,[10]; [15],2 µg/mL
same,MBC 50,"[10]; second MBC 50 line of the summary, Stenotrophomonas, values equal those of the CF Pseudomonas isolates",4 µg/mL
same,MBC 90,"[10]; second MBC 90 line of the summary, Stenotrophomonas, values equal those of the CF Pseudomonas isolates",8 µg/mL
same,MBC 50,[11]; [16],>32 µg/mL
same,MBC 90,[11]; [16],>32 µg/mL
same,MIC50,[11]; [16],16 µg/mL
same,MIC90,[11]; [16],>32 µg/mL
same,MBC,[11]; [17],32 µg/mL
same,MIC,[11]; [17],2 µg/mL
same,MBC,[11]; [18],8 µg/mL
same,MIC,[11]; [18],2 µg/mL
same,MBC,[11]; [19],>32 µg/mL
same,MIC,[11]; [19],16 µg/mL
same,MBC,[11]; [20],>32 µg/mL
same,MIC,[11]; [20],32 µg/mL
same,MBC,[11]; [21],16 µg/mL
same,MIC,[11]; [21],8 µg/mL
same,MBC,[11]; [22],>32 µg/mL
same,MIC,[11]; [22],>32 µg/mL
same,MBC,[11]; [23],>32 µg/mL
same,MIC,[11]; [23],32 µg/mL
same,MBC,[11]; [24],>32 µg/mL
same,MIC,[11]; [24],>32 µg/mL
same,MBC,[11]; [25],4 µg/mL
same,MIC,[11]; [25],1 µg/mL
same,MBC,[11]; [26],>32 µg/mL
same,MIC,[11]; [26],16 µg/mL
same,MBC,[11]; [27],32 µg/mL
same,MIC,[11]; [27],8 µg/mL
same,MBC 90,[11]; [28],> 32 µg/mL
same,MIC90,[11]; [28],> 32 µg/mL
same,MBC 50,[11]; [29],>32 µg/mL
same,MBC 90,[11]; [29],>32 µg/mL
same,MIC50,[11]; [29],16 µg/mL
same,MIC90,[11]; [29],>32 µg/mL
